For experiment [1], the target named is T1, CAK complex (human Cdk7, human Cyclin H, MAT-1) (Homo sapiens, UniProt P50613).
T1 construct: made in house; host or cells: SF-900 insect cells co-infected with Flag-Cdk7 and Bab-Cyclin H baculoviruses
Briefly: in vitro time-resolved-fluorescence assay for the CAK kinase activity. The class given is biochemical. The note with it: compound 20 uM; for inhibition at 20 µM: read-out: CAK % inhib. The gist of the method: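 Kinase activity of the human CAK complex (Flag-tagged Cdk7, Cyclin H, MAT-1), purified from co-infected SF-900 insect cells by Flag-M2 immunoaffinity, was measured by time-resolved fluorescence. In black glutathione-coated 96-well plates, 500 ng GST-CTD substrate with 22 uM ATP was mixed with compound in 30% DMSO/25 mM Hepes and 250 ng CAK. Plates were incubated 20 minutes at 30° C, then stopped with EDTA, bound overnight and washed. A Europium-labeled antibody detected serine-phosphorylated CTD.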

Experiment [2] addresses T2, Focal Adhesion Kinase (full-length Flag-tagged human FAK) (Homo sapiens, UniProt Q05397).
T2 construct: a purified recombinant full-length Flag-tagged human FAK protein; Flag; made in house; host or cells: baculovirus infected insect cells
Briefly: in vitro FAK ELISA kinase assay. The class given is biochemical. Particulars: compound 10 uM, ATP 2 uM; for inhibition at 10 µM: read-out: FAK % Inhib ave: 10 uM. The method, boiled down:
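Plate-coated GST fusion of the 73-residue region around Tyr397 phosphorylated by full-length Flag-tagged human FAK from baculovirus-infected insect cells, with 2 μM ATP in Mg/Mn HEPES pH 7.5, 1 h at 30 °C. Phosphotyrosine detected by HRP-anti-pTyr ELISA with TMB read-out. Compounds screened at 10 μM or titrated from 50 μM in half-log steps for IC50, BSA-substrate background subtracted.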

T1 sequence (P50613 with tags, fused parts or gaps): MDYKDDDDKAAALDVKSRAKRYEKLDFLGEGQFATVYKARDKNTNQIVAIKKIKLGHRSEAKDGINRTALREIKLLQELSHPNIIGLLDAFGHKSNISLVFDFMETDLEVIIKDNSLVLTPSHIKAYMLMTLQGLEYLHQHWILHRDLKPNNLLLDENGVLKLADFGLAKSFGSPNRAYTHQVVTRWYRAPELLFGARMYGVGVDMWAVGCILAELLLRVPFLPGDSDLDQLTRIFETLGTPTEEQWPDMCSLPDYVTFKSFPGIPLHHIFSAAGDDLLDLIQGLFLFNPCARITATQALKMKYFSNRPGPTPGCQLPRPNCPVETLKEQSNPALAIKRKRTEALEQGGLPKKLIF
T1 sequence (as listed by the source partner): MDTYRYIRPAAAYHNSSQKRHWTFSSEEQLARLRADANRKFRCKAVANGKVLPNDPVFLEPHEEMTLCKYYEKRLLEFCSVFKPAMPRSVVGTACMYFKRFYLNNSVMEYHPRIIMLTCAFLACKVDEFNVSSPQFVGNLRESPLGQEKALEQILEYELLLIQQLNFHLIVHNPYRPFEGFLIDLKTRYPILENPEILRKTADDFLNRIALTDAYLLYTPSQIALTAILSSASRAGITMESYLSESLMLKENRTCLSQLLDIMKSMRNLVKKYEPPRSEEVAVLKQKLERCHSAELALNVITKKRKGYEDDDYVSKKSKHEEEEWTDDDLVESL
T2 sequence (Q05397 whole entry): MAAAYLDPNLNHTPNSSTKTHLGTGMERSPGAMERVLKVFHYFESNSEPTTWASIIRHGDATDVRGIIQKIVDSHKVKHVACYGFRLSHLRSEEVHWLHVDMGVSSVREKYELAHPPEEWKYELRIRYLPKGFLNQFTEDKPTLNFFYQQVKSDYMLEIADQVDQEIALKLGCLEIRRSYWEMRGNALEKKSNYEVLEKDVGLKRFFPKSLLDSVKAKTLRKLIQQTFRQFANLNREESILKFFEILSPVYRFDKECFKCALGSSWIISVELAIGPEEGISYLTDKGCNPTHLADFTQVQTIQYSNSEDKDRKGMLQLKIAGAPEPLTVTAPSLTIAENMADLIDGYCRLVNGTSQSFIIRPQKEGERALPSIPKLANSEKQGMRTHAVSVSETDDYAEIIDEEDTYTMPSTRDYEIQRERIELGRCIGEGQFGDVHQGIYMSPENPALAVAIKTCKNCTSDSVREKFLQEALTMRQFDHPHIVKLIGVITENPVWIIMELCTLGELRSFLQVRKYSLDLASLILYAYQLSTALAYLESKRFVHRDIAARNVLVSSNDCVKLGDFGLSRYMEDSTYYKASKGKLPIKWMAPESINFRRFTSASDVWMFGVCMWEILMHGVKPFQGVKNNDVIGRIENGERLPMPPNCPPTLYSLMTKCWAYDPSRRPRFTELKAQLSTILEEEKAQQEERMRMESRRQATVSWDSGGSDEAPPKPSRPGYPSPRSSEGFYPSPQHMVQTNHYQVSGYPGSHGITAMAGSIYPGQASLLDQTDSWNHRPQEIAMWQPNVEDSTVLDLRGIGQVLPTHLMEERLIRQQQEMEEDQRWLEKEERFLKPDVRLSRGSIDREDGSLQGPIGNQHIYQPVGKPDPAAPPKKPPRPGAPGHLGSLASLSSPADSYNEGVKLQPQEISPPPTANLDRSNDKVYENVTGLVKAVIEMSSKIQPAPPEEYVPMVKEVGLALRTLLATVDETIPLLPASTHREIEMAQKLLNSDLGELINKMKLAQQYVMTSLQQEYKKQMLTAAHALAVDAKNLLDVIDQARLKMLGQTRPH

`O=C(NCCCN1CCCC1=O)c1cccc(Nc2ncc3nnn(-c4ccc5c(c4)CCC5)c3n2)c1` [Compound 80, 3-(3-Indan-5-yl-3H-[1,2,3]triazolo[4,5-d]pyrimidin-5-ylamino)-N-[3-(2-oxo-pyrrolidin-1-yl)-propyl]-benzamide]: in experiment [1], the inhibition at 20 µM was 17.9%. For the same compound, the inhibition at 10 µM in experiment [2] came out at 33.9%.

Consider `CC(C)(C)OC(=O)N1CCC(CNc2ncc3nnn(-c4ccc5c(c4)CCC5)c3n2)CC1` [Compound 6, 4-[(3-Indan-5-yl-3H-[1,2,3]triazolo[4,5-d]pyrimidin-5-ylamino)-methyl]-piperidine-1-carboxylic acid tert-butyl ester], for which the inhibition at 20 µM in experiment [1] was found to be 28.9%. Further, the inhibition at 10 µM in experiment [2] was determined as 73%.

For `CN(C)CC(O)COc1ccc(Nc2ncc3nnn(-c4cccc(C#N)c4)c3n2)cc1` (stereo not shown) [Compound 10, 3-{5-[4-(3-Dimethylamino-2-hydroxy-propoxy)-phenylamino]-[1,2,3]triazolo[4,5-d]pyrimidin-3-yl]-benzonitrile], the inhibition at 20 µM in experiment [1] worked out at 11.5%. Moreover, in experiment [2], the inhibition at 10 µM was 64.7%.

In the case of `CCN(CC)CCNC(=O)c1ccc(Nc2ncc3nnn(-c4ccc(C5CCCCC5)cc4)c3n2)cc1` [Compound 83, 4-[3-(4-Cyclohexyl-phenyl)-3H-[1,2,3]triazolo[4,5-d]pyrimidin-5-ylamino]-N-(2-diethylamino-ethyl)-benzamide], the inhibition at 20 µM in experiment [1] was found to be 5.45%. Moreover, the inhibition at 10 µM in experiment [2] was determined as 28.7%.

On to `CN(Cc1ccccc1Nc1ncc2nnn(-c3ccc4c(c3)CCC4)c2n1)C1CCCCC1` [Compound 18, {2-[(Cyclohexyl-methyl-amino)-methyl]-phenyl}-(3-indan-5-yl-3H-[1,2,3]triazolo[4,5-d]pyrimidin-5-yl)-amine], for which the inhibition at 20 µM in experiment [1] is 20.7%. Moreover, the inhibition at 10 µM in experiment [2] was found to be 12.2%.

For `CCN(CC)CCNC(=O)c1ccc(Nc2ncc3nnn(-c4ccc(N5CCN(Cc6ccccc6)CC5)cc4)c3n2)cc1` [Compound 56, 4-{3-[4-(4-Benzyl-piperazin-1-yl)-phenyl]-3H-[1,2,3]triazolo[4,5-d]pyrimidin-5-ylamino}-N-(2-diethylamino-ethyl)-benzamide], the inhibition at 20 µM in experiment [1] was 87.3%. For the same compound, the inhibition at 10 µM in experiment [2] was found to be 75.5%.

Consider `CCN(CC)CCOC(=O)c1ccc(Nc2ncc3nnn(-c4ccc5c(c4)CCC5)c3n2)cc1` [Compound 33, 4-(3-Indan-5-yl-3H-[1,2,3]triazolo[4,5-d]pyrimidin-5-ylamino)-benzoic acid 2-diethylamino-ethyl ester], for which the “CAK % inhib; 20 uM” value in experiment [1] was found to be 42.00%. For the same compound, in experiment [2], the “FAK % Inhib ave: 10 uM” value worked out at 28.57%.

For `CCN(CC)CCNC(=O)c1ccc(-n2nnc3cnc(Nc4ccc(N5CCN(Cc6ccccc6)CC5)cc4)nc32)cc1` [Compound 53, 4-{5-[4-(4-Benzyl-piperazin-1-yl)-phenylamino]-[1,2,3]triazolo[4,5-d]pyrimidin-3-yl}-N-(2-diethylamino-ethyl)-benzamide], the inhibition at 20 µM in experiment [1] amounted to 43.7%. Also, the inhibition at 10 µM in experiment [2] turned out to be 60.5%.

On to `CN(Cc1ccccc1Nc1ncc2nnn(-c3ccccc3CN(C)C3CCCCC3)c2n1)C1CCCCC1` [Compound 21, {2-[(Cyclohexyl-methyl-amino)-methyl]-phenyl}-(3-{2-[(cyclohexyl-methyl-amino)-methyl]-phenyl}-3H-[1,2,3]triazolo[4,5-d]pyrimidin-5-yl)-amine], for which the inhibition at 20 µM in experiment [1] amounted to 23.3%. For the same compound, the inhibition at 10 µM in experiment [2] was found to be 19%.

Turning to `COc1cc(-n2nnc3cnc(Nc4cccc(S(N)(=O)=O)c4)nc32)cc(OC)c1OC` [Compound 44, 3-[3-(3,4,5-Trimethoxy-phenyl)-3H-[1,2,3]triazolo[4,5-d]pyrimidin-5-ylamino]-benzene-sulfonamide], the inhibition at 20 µM in experiment [1] was 10.2%. The inhibition at 10 µM in experiment [2] amounted to 24.7%.

`CN(C)CC(O)COc1ccc(Nc2ncc3nnn(-c4ccc5c(c4)CCC5)c3n2)cc1` (stereo not shown) [Compound 1, 1-Dimethylamino-3-[4-(3-indan-5-yl-3H-[1,2,3]triazolo[4,5-d]pyrimidin-5-ylamino)-phenoxy]-propan-2-ol]: the inhibition at 20 µM in experiment [1] came to 102%. Also, the inhibition at 10 µM in experiment [2] was 93.6%.

The record behind these values is US7563781B2, “Triazolopyrimidine derivatives” (Janssen Pharmaceutica NV, priority 2006, dated 2009).
